The record followed here is US11827917B1, “Methods for the conversion of fermentable sugars to ethanol” (Colorado State University Research Foundation, priority 2020, dated 2023).

One assay concerns S. cerevisiae JAY 270. As to the kind of experiment: Continuous two-column immobilized cell bioreactor in YPD medium. The assay is classed as cell-based, Saccharomyces cerevisiae. The settings on record: Phase 2, 0.2% PheOH in feed. The text has this:
The immobilized cell reactor system consisted of two glass cylindrical columns, a vessel with agitation containing fermentation medium (controlled temperature, pH, and dissolved oxygen), and a pump for delivery of the feed to the column. The glass column had dimensions of OD=32, ID=29, and L=160 mm; screens were placed above and below the alginate bead layer to retain the cells in the column. YPD medium with 0.6 g/L CaCl2·2H2O was used in the continuous fermentation. Two columns (a well-mixed reactor column and a packed-bed column) were used in this test (FIG. 5). The total volume of immobilized cells used to fill the column was […] and the medium volume was 20 mL in each column. The total medium volume in the system was 60 mL, including the medium in both columns and in the vessel. The flow rate of fresh medium was 2.3 mL/min.
The system was first fed with YPD medium for 20 hours to activate the immobilized cells. After 20 hours, samples were collected at different times points over 24 hours from both Column 1 (well-mixed reactor) and the entire system. Then YPD medium containing 0.2% PheOH was used to replace the YPD medium for another 26 hours. After that, the medium was changed back to YPD medium for 6 hours. The content of glucose and ethanol in samples was analyzed using HPLC.
Owing to the limited supply of algal hydrolysate, the test was conducted using YPD medium. The test was conducted with 0.2% PheOH as the growth inhibitor. For 20 hours prior to the start of the experiment, the system was fed YPD medium without PheOH to ensure that the cells were fully active following their immobilization. The experiment was then conducted with three phases: • (1) 24 hours, during which the feed was YPD medium without PheOH. The start of this phase represented time zero of the experiment. • (2) 26 hours, during which the feed was YPD medium with 0.2% PheOH. • (3) 6 hours, during which the feed was YPD medium without PheOH.

The test system of another assay is yeast cell growth. As to the kind of experiment: Serum-bottle study of the TrpOH concentration with similar growth inhibition as PheOH. The settings on record: serum bottles, data not shown. The assay is classed as cell-based. As for the experimental part:
For experiments with added PheOH, 2.0 mL of PheOH stock solution was added to one of the two vessels when the OD600 reached 1.0 to achieve a final concentration of 0.2% (w/v). In the serum bottle tests, TrpOH had stronger effects on yeast cell growth than PheOH at the same tested concentration. A study in serum bottles was then conducted to determine the TrpOH concentration that would have a similar growth inhibitory effect. […] Thus, for bioreactor experiments on the effects of TrpOH, the TrpOH was added at 0.12%. Since TrpOH was dissolved in DMSO, the same concentration of DMSO was added in the control bioreactor at the same time. All other bioreactor conditions were the same as in the PheOH test.

Regarding `OCCc1ccccc1` [PheOH, 2-phenylethanol], the Ethanol productivity in the assay on S. cerevisiae JAY 270 (C1) and with S. cerevisiae JAY 270 (whole system) was 21 g/L·h each time. Further, the results for the Ethanol yield entry with S. cerevisiae JAY 270 (C1) and in the assay with S. cerevisiae JAY 270 (C1+C2) were “about 0.45” and ~0.43, respectively. Further, the values for the Glucose conversion in the assay with S. cerevisiae JAY 270 (C1+C2) and in the assay with S. cerevisiae JAY 270 (after C1) were 91% and 60%, respectively.
Regarding `OCCc1c[nH]c2ccccc12` [TrpOH, tryptophol], in the assay with yeast cell growth, the “Concentration with similar growth inhibition as PheOH at 16.4 mM” value turned out to be 7.5 mM and the “Concentration with similar growth inhibition as PheOH at 0.2% (w/v)” value is reported as 0.12 % (w/v).
